Publication PMC4268243 (Nuclear medicine and biology, 2014)

How the values were obtained:
[1] = system: A549 lung adenocarcinoma cells; experiment: Amino acid uptake and inhibition in A549 cells; assay type: cell-based, human; details: A549, 30 minutes incubation
[2] = system: DU145 androgen-independent prostate carcinoma cells; experiment: Amino acid uptake and inhibition in DU145 cells; assay type: cell-based, human; details: DU145, 30 minutes incubation
[3] = system: U87 glioblastoma cells; experiment: Amino acid uptake and inhibition in U87 cells; assay type: cell-based, human; details: U87, 30 minutes incubation
[4] = system: SKOV3 estrogen-positive ovarian adenocarcinoma cells; experiment: Amino acid uptake and inhibition in SKOV3 cells; assay type: cell-based, human; details: SKOV3, 30 minutes incubation
[5] = system: A549 tumor xenograft; experiment: Biodistribution in A549 tumor-bearing SCID mice; assay type: in vivo; details: listed as (S)-[^18F]FAMP 1
[6] = system: U87 tumor xenograft; experiment: Biodistribution in U87 tumor-bearing SCID mice; assay type: in vivo; details: listed as (S)-[^18F]FAMP 1
[7] = system: MDA MB468 tumor xenograft; experiment: Biodistribution in MDA MB468 tumor-bearing SCID mice; assay type: in vivo
[8] = system: human A549, DU145, U87, MDA MB468 and SKOV3 tumor cells; experiment: Amino acid uptake and inhibition, summary over the five tumor cell lines; assay type: cell-based
[9] = system: SCID mice xenograft tumor models; assay type: in vivo; details: in most cases, over tumors and time points
[10] = 15 min post injection, listed as (S)-[^18F]FAMP 1
[11] = 30 min post injection, listed as (S)-[^18F]FAMP 1
[12] = 60 min post injection, listed as (S)-[^18F]FAMP 1
[13] = 120 min post injection, listed as (S)-[^18F]FAMP 1

SMILES: CC(N)(C[18F])C(=O)O [(S)-[^18F]1] [2-amino-3-[^18F]fluoro-2-methylpropanoic acid]
- Cell uptake ([1]; 10 mM BCH): 1.5±0.1 % ID/5×10^5 cells
- Cell uptake ([1]; 10 mM MeAIB): 3.9±0.6 % ID/5×10^5 cells
- Cell uptake ([1]; Control (no inhibitor)): 4.8±0.7 % ID/5×10^5 cells
- Cell uptake ([2]; 10 mM BCH): 1.6±0.1 % ID/5×10^5 cells
- Cell uptake ([2]; 10 mM MeAIB): 3.2±0.4 % ID/5×10^5 cells
- Cell uptake ([2]; Control (no inhibitor)): 3.6±0.3 % ID/5×10^5 cells
- Cell uptake ([3]; 10 mM BCH): 0.8±0.1 % ID/5×10^5 cells
- Cell uptake ([3]; 10 mM MeAIB): 1.0±0.04 % ID/5×10^5 cells
- Cell uptake ([3]; Control (no inhibitor)): 1.5±0.1 % ID/5×10^5 cells
- Cell uptake ([4]; 10 mM BCH): 1.7±0.1 % ID/5×10^5 cells
- Cell uptake ([4]; 10 mM MeAIB): 2.9±0.2 % ID/5×10^5 cells
- Cell uptake ([4]; Control (no inhibitor)): 3.9±0.2 % ID/5×10^5 cells
- uptake in blood ([5]; 15 min post injection): 3.9±0.6 %ID/g
- uptake in bone ([5]; 15 min post injection): 2.6±0.8 %ID/g
- uptake in brain ([5]; 15 min post injection): 0.5±0.1 %ID/g
- uptake in heart ([5]; 15 min post injection): 3.2±0.7 %ID/g
- uptake in kidney ([5]; 15 min post injection): 29±5.7 %ID/g
- uptake in liver ([5]; 15 min post injection): 3.7±0.5 %ID/g
- uptake in lung ([5]; 15 min post injection): 5.5±2.0 %ID/g
- uptake in muscle ([5]; 15 min post injection): 3.3±0.7 %ID/g
- uptake in pancreas ([5]; 15 min post injection): 42±8.4 %ID/g
- uptake in spleen ([5]; 15 min post injection): 9.0±3.0 %ID/g
- uptake in tumor ([5]; 15 min post injection): 6.7±1.7 %ID/g
- uptake in blood ([5]; 30 min post injection): 3.1±0.6 %ID/g
- uptake in bone ([5]; 30 min post injection): 2.5±0.6 %ID/g
- uptake in brain ([5]; 30 min post injection): 0.6±0.1 %ID/g
- uptake in heart ([5]; 30 min post injection): 3.3±0.4 %ID/g
- uptake in kidney ([5]; 30 min post injection): 21±6.9 %ID/g
- uptake in liver ([5]; 30 min post injection): 3.8±0.6 %ID/g
- uptake in lung ([5]; 30 min post injection): 4.3±1.7 %ID/g
- uptake in muscle ([5]; 30 min post injection): 3.0±0.8 %ID/g
- uptake in pancreas ([5]; 30 min post injection): 39±8.2 %ID/g
- uptake in spleen ([5]; 30 min post injection): 8.4±1.7 %ID/g
- uptake in tumor ([5]; 30 min post injection): 7.9±1.0 %ID/g
- uptake in blood ([5]; 60 min post injection): 2.3±0.1 %ID/g
- uptake in bone ([5]; 60 min post injection): 2.7±0.6 %ID/g
- uptake in brain ([5]; 60 min post injection): 0.8±0.1 %ID/g
- uptake in heart ([5]; 60 min post injection): 3.0±0.4 %ID/g
- uptake in kidney ([5]; 60 min post injection): 17±1.4 %ID/g
- uptake in liver ([5]; 60 min post injection): 3.5±0.4 %ID/g
- uptake in lung ([5]; 60 min post injection): 2.8±1.3 %ID/g
- uptake in muscle ([5]; 60 min post injection): 2.9±0.6 %ID/g
- uptake in pancreas ([5]; 60 min post injection): 33±6.1 %ID/g
- uptake in spleen ([5]; 60 min post injection): 6.5±1.1 %ID/g
- uptake in tumor ([5]; 60 min post injection): 8.3±1.0 %ID/g
- uptake in blood ([5]; 120 min post injection): 2.0±0.4 %ID/g
- uptake in bone ([5]; 120 min post injection): 2.0±0.5 %ID/g
- uptake in brain ([5]; 120 min post injection): 0.8±0.1 %ID/g
- uptake in heart ([5]; 120 min post injection): 2.7±0.8 %ID/g
- uptake in kidney ([5]; 120 min post injection): 14±1.8 %ID/g
- uptake in liver ([5]; 120 min post injection): 2.8±0.4 %ID/g
- uptake in lung ([5]; 120 min post injection): 3.1±0.9 %ID/g
- uptake in muscle ([5]; 120 min post injection): 2.3±0.4 %ID/g
- uptake in pancreas ([5]; 120 min post injection): 29±2.3 %ID/g
- uptake in spleen ([5]; 120 min post injection): 6.0±1.7 %ID/g
- uptake in tumor ([5]; 120 min post injection): 6.5±0.8 %ID/g
- uptake in blood ([6]; 15 min post injection): 3.5±0.4 %ID/g
- uptake in bone ([6]; 15 min post injection): 2.4±0.7 %ID/g
- uptake in brain ([6]; 15 min post injection): 0.5±0.1 %ID/g
- uptake in heart ([6]; 15 min post injection): 3.1±0.4 %ID/g
- uptake in kidney ([6]; 15 min post injection): 37±4.9 %ID/g
- uptake in liver ([6]; 15 min post injection): 6.6±2.0 %ID/g
- uptake in lung ([6]; 15 min post injection): 4.6±0.6 %ID/g
- uptake in muscle ([6]; 15 min post injection): 3.3±0.7 %ID/g
- uptake in pancreas ([6]; 15 min post injection): 48±11 %ID/g
- uptake in spleen ([6]; 15 min post injection): 11±2.7 %ID/g
- uptake in tumor ([6]; 15 min post injection): 6.4±1.3 %ID/g
- uptake in blood ([6]; 30 min post injection): 3.7±0.7 %ID/g
- uptake in bone ([6]; 30 min post injection): 2.1±0.5 %ID/g
- uptake in brain ([6]; 30 min post injection): 0.6±0.1 %ID/g
- uptake in heart ([6]; 30 min post injection): 3.1±0.4 %ID/g
- uptake in kidney ([6]; 30 min post injection): 28±5.2 %ID/g
- uptake in liver ([6]; 30 min post injection): 6.0±1.0 %ID/g
- uptake in lung ([6]; 30 min post injection): 3.6±0.5 %ID/g
- uptake in muscle ([6]; 30 min post injection): 3.3±0.3 %ID/g
- uptake in pancreas ([6]; 30 min post injection): 50±8.7 %ID/g
- uptake in spleen ([6]; 30 min post injection): 10±1.0 %ID/g
- uptake in tumor ([6]; 30 min post injection): 6.8±0.8 %ID/g
- uptake in blood ([6]; 60 min post injection): 2.1±0.4 %ID/g
- uptake in bone ([6]; 60 min post injection): 2.0±0.1 %ID/g
- uptake in brain ([6]; 60 min post injection): 0.6±0.1 %ID/g
- uptake in heart ([6]; 60 min post injection): 2.8±0.7 %ID/g
- uptake in kidney ([6]; 60 min post injection): 15±3.3 %ID/g
- uptake in liver ([6]; 60 min post injection): 4.4±0.6 %ID/g
- uptake in lung ([6]; 60 min post injection): 2.6±0.8 %ID/g
- uptake in muscle ([6]; 60 min post injection): 2.3±0.3 %ID/g
- uptake in pancreas ([6]; 60 min post injection): 32±11 %ID/g
- uptake in spleen ([6]; 60 min post injection): 6.1±1.1 %ID/g
- uptake in tumor ([6]; 60 min post injection): 4.4±0.8 %ID/g
- uptake in blood ([6]; 120 min post injection): 1.2±0.5 %ID/g
- uptake in bone ([6]; 120 min post injection): 1.0±0.3 %ID/g
- uptake in brain ([6]; 120 min post injection): 0.7±0.2 %ID/g
- uptake in heart ([6]; 120 min post injection): 2.1±0.3 %ID/g
- uptake in kidney ([6]; 120 min post injection): 7.3±1.4 %ID/g
- uptake in liver ([6]; 120 min post injection): 4.1±1.3 %ID/g
- uptake in lung ([6]; 120 min post injection): 1.5±0.4 %ID/g
- uptake in muscle ([6]; 120 min post injection): 1.3±0.3 %ID/g
- uptake in pancreas ([6]; 120 min post injection): 18±6.4 %ID/g
- uptake in spleen ([6]; 120 min post injection): 3.4±1.1 %ID/g
- uptake in tumor ([6]; 120 min post injection): 2.8±0.4 %ID/g
- uptake in blood [7, 10]: 4.2±0.3 %ID/g
- uptake in bone [7, 10]: 2.5±0.3 %ID/g
- uptake in brain [7, 10]: 0.6±0.1 %ID/g
- uptake in heart [7, 10]: 3.4±0.3 %ID/g
- uptake in kidney [7, 10]: 39±3.3 %ID/g
- uptake in liver [7, 10]: 4.8±0.9 %ID/g
- uptake in lung [7, 10]: 4.5±1.3 %ID/g
- uptake in muscle [7, 10]: 3.9±0.7 %ID/g
- uptake in pancreas [7, 10]: 51±10 %ID/g
- uptake in spleen [7, 10]: 14±2.8 %ID/g
- uptake in tumor [7, 10]: 5.8±0.7 %ID/g
- uptake in blood [7, 11]: 3.6±0.4 %ID/g
- uptake in bone [7, 11]: 2.4±0.6 %ID/g
- uptake in brain [7, 11]: 0.8±0.2 %ID/g
- uptake in heart [7, 11]: 3.2±0.3 %ID/g
- uptake in kidney [7, 11]: 29±6.1 %ID/g
- uptake in liver [7, 11]: 4.7±0.8 %ID/g
- uptake in lung [7, 11]: 4.3±1.9 %ID/g
- uptake in muscle [7, 11]: 3.4±0.4 %ID/g
- uptake in pancreas [7, 11]: 56±7.6 %ID/g
- uptake in spleen [7, 11]: 12±4.2 %ID/g
- uptake in tumor [7, 11]: 6.1±1.4 %ID/g
- uptake in tumor ([7]; 60 min post injection): 4.8±1.2 %ID/g
- uptake in blood [7, 12]: 2.9±1.0 %ID/g
- uptake in bone [7, 12]: 2.2±0.6 %ID/g
- uptake in brain [7, 12]: 0.7±0.1 %ID/g
- uptake in heart [7, 12]: 2.9±0.5 %ID/g
- uptake in kidney [7, 12]: 20±2.7 %ID/g
- uptake in liver [7, 12]: 4.3±0.6 %ID/g
- uptake in lung [7, 12]: 2.6±0.6 %ID/g
- uptake in muscle [7, 12]: 2.7±0.6 %ID/g
- uptake in pancreas [7, 12]: 46±9.5 %ID/g
- uptake in spleen [7, 12]: 7.1±0.9 %ID/g
- uptake in blood [7, 13]: 1.5±0.1 %ID/g
- uptake in bone [7, 13]: 1.0±0.6 %ID/g
- uptake in brain [7, 13]: 0.8±0.1 %ID/g
- uptake in heart [7, 13]: 2.0±0.2 %ID/g
- uptake in kidney [7, 13]: 11±1.4 %ID/g
- uptake in liver [7, 13]: 2.6±0.2 %ID/g
- uptake in lung [7, 13]: 1.6±0.4 %ID/g
- uptake in muscle [7, 13]: 1.3±0.5 %ID/g
- uptake in pancreas [7, 13]: 23±6.8 %ID/g
- uptake in spleen [7, 13]: 5.6±2.2 %ID/g
- uptake in tumor [7, 13]: 5.0±0.4 %ID/g
- inhibition of uptake by BCH ([8]; 10 mM BCH, relative to control, most cell lines): 36-68%
- inhibition of uptake by MeAIB ([8]; 10 mM MeAIB, relative to control, most cell lines): 10-32%
- uptake in tumor cells ([8]; 30 minutes incubation, without inhibitors, range over the cell lines): 2-5 %ID/5×10^5 cells
- amino acid transport system mediating uptake / selectivity ([8]; AAT cell inhibition assays with MeAIB and BCH): mixed AATs, likely but not limited to system A and system L
- ratio of tumor to muscle [9]: above 2
